ChEMBL document CHEMBL1127225, “Gem-cycloalkyl substituted thiol inhibitors of neutral endopeptidase 24.11. Synthesis via nucleophilic opening of 2,2-spiro--lactones” (Bioorg Med Chem Lett, 1993)

What follows are compounds tested against T1, Neprilysin (Rattus norvegicus, UniProt P07861) (assay: The compound was tested for its inhibitory activity against neutral endopeptidase ([…]) in rat kidney).
T1 sequence (P07861 whole entry): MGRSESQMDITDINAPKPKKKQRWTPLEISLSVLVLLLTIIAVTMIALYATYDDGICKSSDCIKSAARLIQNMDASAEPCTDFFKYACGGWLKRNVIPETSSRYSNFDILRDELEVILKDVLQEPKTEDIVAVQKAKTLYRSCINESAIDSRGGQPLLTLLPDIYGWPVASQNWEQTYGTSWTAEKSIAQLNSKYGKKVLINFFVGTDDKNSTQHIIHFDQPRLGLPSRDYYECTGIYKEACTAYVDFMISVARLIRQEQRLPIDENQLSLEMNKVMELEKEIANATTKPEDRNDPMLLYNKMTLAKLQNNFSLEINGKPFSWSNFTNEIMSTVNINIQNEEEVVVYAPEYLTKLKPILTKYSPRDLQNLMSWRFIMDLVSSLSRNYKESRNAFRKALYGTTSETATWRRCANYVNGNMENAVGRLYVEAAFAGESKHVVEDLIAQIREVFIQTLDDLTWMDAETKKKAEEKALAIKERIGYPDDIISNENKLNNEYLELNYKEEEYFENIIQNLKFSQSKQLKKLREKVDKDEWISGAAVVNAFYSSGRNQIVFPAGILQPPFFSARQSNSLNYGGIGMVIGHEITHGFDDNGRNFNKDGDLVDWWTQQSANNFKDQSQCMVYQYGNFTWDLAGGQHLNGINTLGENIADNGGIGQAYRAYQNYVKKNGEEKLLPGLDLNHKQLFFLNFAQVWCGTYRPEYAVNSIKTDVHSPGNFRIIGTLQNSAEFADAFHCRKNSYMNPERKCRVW

| SMILES | IC50 |
| --- | --- |
| COCCOC[C@H](CC1(C(=O)N[C@H]2CC[C@@H](C(=O)O)CC2)CCCC1)C(=O)O [CANDOXATRILAT] | 38 nM |
| O=C(O)[C@H]1CCC[C@@H](NC(=O)C2(CS)CCCCC2)C1 | 310 nM |

Second part, the compound after the results:

| IC50 | SMILES |
| --- | --- |
| 215 nM | O=C(O)[C@H]1CCC[C@@H](NC(=O)C2(CS)CCCC2)C1 |
| 180 nM | O=C(N[C@@H]1CCC[C@H](C(=O)O)C1)C(CS)Cc1ccccc1 (stereo not given in full) |
| 220 nM | O=C(O)[C@H](Cc1ccccc1)NC(=O)C1(CS)CCCC1 |
